Results as given in US9376406B2, “uPAR-uPA interaction inhibitors and methods for treating cancer” (Indiana University Research and Technology Corporation, priority 2011, dated 2016).
Where two headings read alike, the source gives them in different places.

Legend:
[1] = target: T1, uPAR (Homo sapiens, UniProt Q03405); test: Fluorescence polarization, direct binding to uPAR; settings: excitation 530 nm, emission 600 nm
T1 construct: uPAR comprising amino acids 1-277 was expressed in Drosophila S2 cells; made in house; host or cells: Drosophila S2 cells
Experimental: Fluorescence polarization in the presence and absence of protein and were measured using identical conditions as described above.
The mP was evaluated in the a presence and absence of competing 10 μM GFD.

[2] = cellular studies, cytotoxicity of IPR-803; assay type: cell-based
[3] = system: integrins (phospho p44/42 MAPK, p44/42 MAPK, pSrc Y416, Src, pFAK Y397, FAK); test: Integrin signaling by gel electrophoresis; assay type: cell-based
[4] = in vivo pharmacokinetics in mice
Experimental: in vivo Pharmacokinetics of IPR-803 in mice. Compounds are administered to mice via a single dose of 200 mg/kg by oral gavage using a formulation of saline. Blood ([…]) is taken from the mice at their tails at time intervals of 1, 2, 4, 6, 8 and 10 hours (three time points from each of the 18 mice (21)) post injection. Blood plasma samples are prepared by centrifugation for quantification and HPLC-MS/MS analysis. […] The stability of the compounds in plasma is reflected by the half-life (t1/2). To gain insight into its absorption following oral dosing, intravenous bioavailability of compounds described herein is determined. Compounds are injected intravenously (IV) into the tail vein. Blood plasma samples are prepared from collected blood samples at 5, 10, 20, 45 and 120 minutes (three mice per time point). […] The levels of the compound in tumor tissue remained high even after 10 hours.

[5] = system: TMD-231 cells; test: xenograft mice model of breast cancer metastasis; assay type: in vivo
Experimental: in vivo Efficacy of IPR-803 in xenograft mice model of cancer. Breast Cancer Metastasis. The Example is performed as described in Wang et al. (2011) Virtual Screening Targeting the Urokinase Receptor, Biochemical and Cell-Based Studies, Synthesis, Pharmacokinetic Characterization, and Effect on Breast Tumor Metastasis. J Med Chem In press, the disclosure of which is incorporated herein in its entirety. Briefly, TMD-231 cells are inoculated into the mammary fat pad of female NOD/SCID mice. Dosing is initiated at day 15 post implantation. Animals are randomized and treated with vehicle or with test compound by daily oral gavage at a dose of 200 mg/kg.
While uPAR's effects on growth are known to be minimal, its role in promoting invasion and metastasis is widely established. To assess the effect of IPR-803 on metastasis, control and experimental animals were sacrificed and organs (lungs) were removed and evaluated for the presence of tumors. The number and size of metastasis in two to five fields per sample were calculated. A score of 4+ was given to a sample with highest metastasis index and relative metastasis in other samples are calculated (i.e., 1+, 2+, 3+) by a sample-blinded pathologist. […] For example, 11 out of 13 untreated mice developed severe (score=3) or marked (score=4) metastasis to the lung. This is compared to only 4 in the treated mice. Among the treated mice, 4 developed moderate metastasis, and another four were scored at 1 or lower, showing mild metastasis to the lungs.
IPR-803 was administered at 200 mg/kg p.o. to test animals, and conventional evaluation of cancer progression and survival measurements were made. […] It is observed that there is a greater percentage of mild an moderate outcomes in the treatment group compared to the untreated group showing a majority of severe outcomes. In addition, whole animal toxicity was evaluated by periodic measurement of weight change in test animals.

[6] = mouse, plasma, po, 200 mg/kg p.o.

T1 sequence (Q03405 23-299): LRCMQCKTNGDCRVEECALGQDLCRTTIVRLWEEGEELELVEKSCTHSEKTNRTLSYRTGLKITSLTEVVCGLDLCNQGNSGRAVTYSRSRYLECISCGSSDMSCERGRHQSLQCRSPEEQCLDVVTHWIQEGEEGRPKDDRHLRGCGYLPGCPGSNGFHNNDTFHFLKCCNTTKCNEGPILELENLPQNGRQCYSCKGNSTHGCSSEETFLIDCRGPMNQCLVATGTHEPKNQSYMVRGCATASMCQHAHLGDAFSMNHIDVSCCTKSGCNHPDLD

Compound: O=C(O)c1cccc(Nc2cc(N3CCCCCC3)c3noc4c3c2C(=O)c2ccccc2-4)c1 [IPR-803, 3-((3-(azepan-1-yl)-6-oxo-6H-anthra[1,9-cd]isoxazol-5-yl)amino)benzoic acid]
- fluorescence polarization (mP) with increasing uPAR concentration [1]: showed a dose response with increasing mP
- cytotoxicity [2]: not cytotoxic
- signaling effect on pathways implicated with growth, such as ERK [3]: does not have a signaling affect
- Cl/F ([4]; 200 mg/kg p.o.): 0.379 L/h
- level in the primary tumor ([4]; LC/MS/MS at 1, 2, 4, 6, and 8 hour intervals): ~10 µM
- levels of the compound in tumor tissue ([4]; after 10 hours): remained high
- bioavailability ([4]; mouse, plasma, oral, 200 mg/kg, estimated from p.o. and IV data): ~4%
- AUC(0-inf) [4, 6]: 13700 ng·h/mL
- AUC(0-t) [4, 6]: 11300 ng·h/mL
- Tmax [4, 6]: 1 h
- half-life [4, 6]: 4.7 h
- Cmax ([4]; mouse, plasma, po, 200 mg/kg p.o., read-out: Cmax): 2600 ng/mL
- Vd/F ([4]; mouse, plasma, po, 200 mg/kg p.o., read-out: Vdss/F): 2.23 L
- Cmax ([4]; mouse, plasma, mice, 200 mg/kg oral gavage, saline, read-out: maximum concentration (Cmax) in plasma): 5 µM
- outcome (cancer progression and survival) compared to vehicle ([5]; 200 mg/kg p.o., n=15): statistically significant (p<0.013) improvement in outcome
- weight change (whole animal toxicity) ([5]; 200 mg/kg p.o., n=15, vs vehicle control): No significant weight change
- number of mice scored at 1 or lower, mild metastasis to the lungs ([5]; treated mice): four
- number of mice with moderate metastasis ([5]; treated mice): 4
- number of mice with severe (score=3) or marked (score=4) metastasis to the lung ([5]; treated mice): 4
- tumor volume ([5]; treated mice, 200 mg/kg daily oral gavage, 33 day study): ~693 mm^3
- effects on tumor size ([5]; treated vs untreated): ~10%
